How the values were obtained:
[1] = test system: Bursaphelenchus xylophilus; experiment: Occurrence of pine wilt disease after trunk injection of induced resistance candidate materials, in vivo test in young red pine trees; details: red pine tree (Pinus densiflora), 30 days after inoculation; for Occurrence rate of pine wilt disease: Number of pine trees showing wilt symptoms / Number of pine trees used for the test: trunk injection 100 µℓ per tree; for Number of pine trees showing wilt symptoms only at growing points of a stem: trunk injection
Procedure: By using the 15 types of an induced resistance elicitors which have been known to induce the plant resistance against various diseases as candidates, their controlling effect against pine wilt disease was examined. The control efficacy of candidates against pine wilt disease was analyzed according to an in vivo test using red pine tree (Pinus densiflora) which was 2-year old young pine trees (diameter of 5.5 mm or so, and height of about 35 mm).
As a candidate group of an induced resistance material, two kinds of acibenzolar-S-methyl (ASM), TDL (Tiadinil), ITL (Isotianil), PBZ (Probenzole), AZO (Azoxystrobin), VMA (Validamycin A), MeJA (Methyl jasmonate), BABA (DL-3-aminobutyric acid), 2,3-BDO (2,3-Butanediol), SA (salicyclic acid), GABA (r-Aminobutyric acid), glucan (Glucan), ER (Ergosterol), and AZA (Azelaic acid) were used. Only the use of acibenzolar-S-methyl is according to the invention. Injection of the chemicals was carried out by trunk injection method, i.e., at an angle of 45°, a borehole was created by using an electric drill with thickness of 1.5 mm on a pine stem part that is 5 to 10 cm above the soil surface, a tip (200 µℓ) was inserted to the hole, and, after dissolving the candidate material at concentration level of 200, 20, or 2 µg/mℓ in each solvent, the solution was injected in an amount of 100 µℓ per pine tree. After the injection of the chemical agent, the end part of the tip was sealed with parafilm.
The pine tree wilt nematodes (Bursaphelenchus xylophilus, National Institute of Forest Science (NIFoS), South Korea) was incubated at 25°C by feeding them with Botrytis cinerea, which have been cultured on a potato dextrose agar (PDA) medium, and after one week incubation, they were collected by Baermann funnel method and were adjusted to the level of 20,000 worms/mℓ by examining the number of the worms under an optical microscope. One week after the chemical treatment, the inoculation of the pine tree wilt nematodes was carried out by tree barking inoculation of 100 µℓ, i.e., 2,000 worms, per tree, and the result was determined 30 days after the inoculation. […] [Table 1] Occurrence rate of pine wilt disease in candidate group of induced resistance materials

[2] = test system: Cytochrome_P450; experiment: qRT-PCR expression of induced resistance gene in pine tree callus; assay type: cell-based; details: for Expression of induced resistance gene, Cytochrome_P450: 24 hours
Procedure: For in vitro analysis of induced resistance, the expression of PR genes and other plant defense-related genes was determined, which are evolved in various defense mechanisms including induced resistance. The primers of sixteen induced resistance-related genes of pine tree used in this invention were listed in the below and elongation factor_1 alpha were used as a reference gene. […] The primer list of defense resistance-related genes
After the treatment with 200 µg / mℓ of candidates of the selected induced resistance material, expression of the induced resistance-related gene in pine callus was determined by qRT-PCR using the primer pairs of defense resistance-related genes in Table 4. As a candidate group of an induced resistance material in pine tree, acibenzolar-S-methyl (ASM), TDL (Tiadinil), ITL (Isotianil), PBZ (Probenzole), AZO (Azoxystrobin), VMA (Validamycin A), MeJA (Methyl jasmonate), BABA (DL-3-aminobutyric acid), 2,3-BDO (2,3-Butanediol), GABA (r-Aminobutyric acid), glucan (Glucan), ER (Ergosterol), and AZA (Azelaic acid) were used. For the in vitro analysis of the expression of induced resistance gene in pine callus, the selected induced resistance materials were applied with 500 µℓ of LM liquid medium on a surface of pine tree callus (100 mg) in 12-well microplate to give final concentration of 200 µg/mℓ. Then, the callus surface was sufficiently reacted for 24 hours with the candidate of pine tree induced resistance material by shaking at 50 rpm in a 25 °C shaking incubator under dark condition. RNAs were extracted from the callus after completion of the reaction with an induced resistance material, followed by synthesis of cDNAs. Then, by carrying out qRT-PCR, the expression of induced resistance genes was determined.
Thus, the following tests were carried out using acibenzolar-S-methyl only. Expression of the induced resistance genes at different culture time after the chemical treatment was examined. For the in vitro assay, LM medium containing pine tree callus was treated with acibenzolar-S-methyl at concentration of 200 µg / mℓ, followed by reaction for 1 day, 7 days, or 14 days in a 25°C shaking incubator under dark condition. RNAs were extracted from the callus after the reaction followed by synthesis of cDNAs. Then, by carrying out qRT-PCR, the expression of the induced resistance genes was determined. Depending on reaction time after the treatment, i.e., after 1 day, 7 days, or 14 days, the expression of the obtained induced resistance genes was examined. […]
For the surface treatment (spraying treatment) of pine tree callus, 100 mg of the pine tree callus were dunked in 500 µℓ LM liquid medium and 500 µℓ of 400 µg/mℓ acibenzolar-S-methyl were sprayed (i.e., sprayed 5 times, 100 µℓ for each spraying, 200 µg/mℓ) on the callus surface. Then, the pine callus sprayed with acibenzolar-S-methyl was reacted for 24 hours by shaking at 50 rpm in a 25°C shaking incubator under dark condition. After the completion of the 24-hour reaction, RNAs were extracted from the callus followed by synthesis of cDNAs. Then, by carrying out qRT-PCR, expression of the induced resistance gene was determined.

Compound | Occurrence rate of pine wilt disease: Number of pine trees showing wilt symptoms / Number of pine trees used for the test ([1]; 2 µg/mℓ) | Occurrence rate of pine wilt disease: Number of pine trees showing wilt symptoms / Number of pine trees used for the test ([1]; 20 µg/mℓ) | Occurrence rate of pine wilt disease: Number of pine trees showing wilt symptoms / Number of pine trees used for the test ([1]; 200 µg/mℓ) | Number of pine trees showing wilt symptoms only at growing points of a stem ([1]; 2 µg/mℓ) | Number of pine trees showing wilt symptoms only at growing points of a stem ([1]; 200 µg/mℓ) | Expression of induced resistance gene, Cytochrome_P450 ([2]; 200 µg/mℓ) | Number of pine trees showing wilt symptoms only at growing points of a stem ([1]; 20 µg/mℓ) | Expression of induced resistance gene, Cytochrome_P450 ([2]; 200 µg/mℓ, Direct supplying as a medium component) | Expression of induced resistance gene, Cytochrome_P450 ([2]; 200 µg/mℓ, Spraying) | Gene expression level, Cytochrome_P450 ([2]; 200 µg/mℓ, After 1 day) | Gene expression level, Cytochrome_P450 ([2]; 200 µg/mℓ, After 7 days) | Gene expression level, Cytochrome_P450 ([2]; 200 µg/mℓ, After 14 days) | Gene expression level, Cytochrome_P450 ([2]; concentration series, 2 µg/mℓ) | Gene expression level, Cytochrome_P450 ([2]; concentration series, 20 µg/mℓ) | Gene expression level, Cytochrome_P450 ([2]; concentration series, 200 µg/mℓ)
C=CCOC1=NS(=O)(=O)c2ccccc21 [PBZ, Probenzole] | 2/3 | 0/3 | 1/3 | 1 | 1 | 1.06 | – | – | – | – | – | – | – | – | –
O=C(O)CCCCCCCC(=O)O [AZA, Azelaic acid] | 2/3 | 2/3 | 2/3 | – | 2 | 1.05 | 1 | – | – | – | – | – | – | – | –
NCCCC(=O)O [GABA, r-Aminobutyric acid] | 3/3 | 1/3 | 0/3 | 1 | – | 2.41 | 1 | – | – | – | – | – | – | – | –
CC(N)CC(=O)O (racemic) [BABA, DL-3-aminobutyric acid] | 2/3 | 3/3 | 2/3 | 2 | 2 | 0.37 | 2 | – | – | – | – | – | – | – | –
N#Cc1ccccc1NC(=O)c1snc(Cl)c1Cl [ITL, Isotianil] | 2/3 | 2/3 | 1/3 | 1 | 1 | 0.98 | 2 | – | – | – | – | – | – | – | –
CSC(=O)c1cccc2nnsc12 [ASM, acibenzolar-S-methyl] | 1/3 | 1/3 | 0/3 | 1 | – | 1.71 | 1 | 9.99 | 1.71 | 7.21 | 0.85 | 0.04 | 1.231 | 1.173 | 1.231

— patent EP3685668B1, “COMPOSITION COMPRISING ACIBENZOLAR-S-METHYL AS EFFECTIVE INGREDIENT FOR CONTROLLING BURSAPHELENCHUS XYLOPHILUS DISEASE AND METHOD FOR CONTROLLING BURSAPHELENCHUS XYLOPHILUS USING SAME” (Industry Foundation of Chonnam National University, priority 2017, dated 2019)
